The text below walks through data of EP2128158A1, “Heterocyclic cyclopropyl-substituted FXR binding compounds” (Phenex Pharmaceuticals AG, priority 2008, dated 2009).

The target of experiment [1] is T1, FXR ligand binding domain (Homo sapiens, UniProt Q96RI1).
T1 construct: expressed in transfected cells; host or cells: HEK293 (DSMZ), transient transfection, vector pCMV-BD
T1 sequence (Q96RI1 187-472 isoform Q96RI1-2): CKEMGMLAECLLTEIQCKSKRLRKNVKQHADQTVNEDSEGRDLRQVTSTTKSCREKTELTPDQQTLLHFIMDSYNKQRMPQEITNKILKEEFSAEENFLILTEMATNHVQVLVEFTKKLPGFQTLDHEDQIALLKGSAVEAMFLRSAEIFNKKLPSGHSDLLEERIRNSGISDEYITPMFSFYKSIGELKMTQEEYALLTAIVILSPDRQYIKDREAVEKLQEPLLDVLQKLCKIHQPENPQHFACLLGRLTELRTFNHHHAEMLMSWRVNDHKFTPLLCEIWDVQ
The experiment is described as follows: Mammalian one hybrid (M1H) assay, Gal4 promoter driven transactivation in HEK293 cells. The format is cell-based. To be noted: Gal4-FXR LBD, 16 hours incubation, dual luciferase, read-out: M1H assay EC50 (±sd). As for the experimental part: Determination of a ligand mediated Gal4 promoter driven transactivation to quantify ligand binding mediated activation of FXR was performed as follows: The cDNA part encoding the FXR ligand binding domain was cloned into vector pCMV-BD (Stratagene) as a fusion to the yeast GAL4 DNA binding domain under the control of the CMV promoter. The amino acid boundaries of the ligand binding domain were amino acids 187-472 of Database entry NM_005123 (RefSeq). The plasmid pFR-Luc (Stratagene) was used as the reporter plasmid, containing a synthetic promoter with five tandem repeats of the yeast GAL4 binding sites, driving the expression of the Photinus pyralis (American firefly) luciferase gene as the reporter gene. In order to improve experimental accuracy the plasmid pRL-CMV (Promega) was cotransfected. pRL-CMV contains the constitutive CMV promoter, controlling the expression of the Renilla reniformis luciferase. All Gal4 reporter gene assays were done in HEK293 cells (obtained from DSMZ, Braunschweig, Germany) grown in MEM with L-Glutamine and Earle's BSS supplemented with 10% fetal bovine serum, 0.1 mM nonessential amino acids, 1mM sodium pyruvate, and 100units Penicilin/[…] per ml at 37°C in 5% CO2. Medium and supplements were obtained from Invitrogen. For the assay, 5x10^5 cells were plated per well in 96well plates in 100µl per well MEM without Phenol Red and L-Glutamine and with Earle's BSS supplemented with 10% charcoal/dextran treated FBS (HyClone, South Logan, Utah), 0.1 mM nonessential amino acids, 2 mM glutamine, 1 mM sodium pyruvate, and 100 units Penicilin/[…] per ml, incubated at 37 °C in 5% CO2. The following day the cells were >90% confluence. Medium was removed and cells were transiently transfected using 20µl per well of a OptiMEM - polyethylene-imine-based transfection-reagent (OptiMEM, Invitrogen; Polyethyleneimine, Aldrich Cat No. 40,827-7) including the three plasmids described above. MEM with the same composition as used for plating cells was added 2-4 hours after addition of transfection mixture. Then compound stocks, prediluted in MEM were added (final vehicle concentration not exceeding 0.1 %). Cells were incubated for additional 16 hours before firefly and renilla luciferase activities were measured sequentially in the same cell extract using a Dual-Light-Luciferase-Assay system (Dyer et al., Anal Biochem 2000, (282), 158-161). All experiments were done in triplicates.

The target of the next experiment is T2, full length human FXR (Homo sapiens, UniProt Q96RI1).
T2 construct: The full length human FXR (NM_005123) was cloned into pTRexDest30; expressed in transfected cells
T2 sequence (Q96RI1 1-472 isoform Q96RI1-2): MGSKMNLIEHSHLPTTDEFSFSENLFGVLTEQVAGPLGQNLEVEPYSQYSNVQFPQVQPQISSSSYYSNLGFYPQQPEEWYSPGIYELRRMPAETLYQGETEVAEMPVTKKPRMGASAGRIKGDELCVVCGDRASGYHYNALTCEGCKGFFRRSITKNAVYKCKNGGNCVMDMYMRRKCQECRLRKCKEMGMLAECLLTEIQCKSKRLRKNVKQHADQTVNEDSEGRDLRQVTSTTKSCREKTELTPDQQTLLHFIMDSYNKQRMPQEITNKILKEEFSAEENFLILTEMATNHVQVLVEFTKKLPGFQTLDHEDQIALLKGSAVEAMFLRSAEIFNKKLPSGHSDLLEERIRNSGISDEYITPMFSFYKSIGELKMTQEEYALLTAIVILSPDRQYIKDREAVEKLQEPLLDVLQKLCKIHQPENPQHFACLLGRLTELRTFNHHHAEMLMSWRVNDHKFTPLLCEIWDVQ
The experiment is described as follows: Direct reporter (DR) gene assay in stably transfected HEK293 cells (D2IV3), luciferase. The format is cell-based. The source says: In the direct reporter gene assay, HEK293 cells, obtained from DSMZ (German Collection of Microorganisms and Cell Cultures, Braunschweig, Germany) were stably transfected with pTRexDest30 (Invitrogen) derivative pTRexDest30-hFXR and pGL2promoter (Promega) derivative pGL2promoter-2xIBABP-RE. The full length human FXR (NM_005123) was cloned into pTRexDest30 according to the manufacturer protocol for the Gateway system (Invitrogen). The FXR response elements cccaGGGTGAaTAACCTcggggctctgtccctccaatcccaGGGTGAaTAACCTcggg were derived from the human IBABP-P promoter (Grober et al. 1999, JBC, 174, pp.29749-29754) and cloned into pGL2promoter. […] For the direct reporter gene assays, D2IV3 cells were grown in MEM with L-Glutamine and Earle's BSS supplemented with 10% fetal bovine serum, 0.1mM nonessential amino acids, 1mM sodium pyruvate, and 100units Penicilin/[…] per ml at 37°C in 5% CO2. Medium and supplements were obtained from Invitrogen. For the assay, 5x10^5 cells were plated per well in 96well plates in 100µl per well minimum essential medium (same composition as above) incubated at 37°C in 5% CO2. The following day the cells were >90% confluence. Compounds were prediluted in MEM and added at different concentrations to the cells with the final DMSO vehicle concentration not exceeding 0.1%. Cells were incubated for additional 16 hours before firefly luciferase activity was measured. All experiments were done in triplicates.

For experiment [2], the target named is T3, human FXR alpha ligand binding domain (Homo sapiens, UniProt Q96RI1).
T3 construct: made in house; host or cells: E. coli BL21(DE3), vector pDEST15
T3 sequence (Q96RI1 187-472 isoform Q96RI1-2): T1 sequence (Q96RI1 187-472 isoform Q96RI1-2)
Description: FRET activity assay (ligand mediated FXR-LBD / SRC-1 cofactor peptide interaction, LANCE). The format is biochemical. As for the experimental part:
Determination of a ligand mediated cofactor peptide interaction to quantify ligand binding to the nuclear receptor FXR was performed as follows: Preparation of human FXR alpha ligand binding domain: The human FXRalpha LBD was expressed in E. coli strain BL21(DE3) as an N-terminally GST tagged fusion protein. The DNA encoding the FXR ligand binding domain was cloned into vector pDEST15 (Invitrogen). Expression was under control of an IPTG inducible T7 promoter. The amino acid boundaries of the ligand binding domain were amino acids 187-472 of Database entry NM_005123 (RefSeq). Expression and purification of the FXR-LBD:
An overnight preculture of a transformed E.coli strain was diluted 1:20 in LB-Ampicillin medium and grown at 30°C to an optical density of OD600=0.4-0.6. Gene expression was then induced by addition of 0.5 mM IPTG. Cells were incubated an additional 6h at 30°C, 180 rpm. Cells were collected by centrifugation (7000 x g, 7 min, room temperature). Per liter of original cell culture, cells were resuspended in 10 ml lysis buffer (50 mM Glucose, 50 mM Tris pH 7.9, 1 mM EDTA and 4 mg/ml lysozyme) and left on ice for 30 min. Cells were then subjected to sonication and cell debris removed via centrifugation (22000 x g, 30 min, 4°C). Per 10 ml of supernatant 0.5 ml prewashed Glutathione 4B sepharose slurry (Qiagen) was added and the suspension kept slowly rotating for 1 h at 4°C. Glutathione 4B sepharose beads were pelleted by centrifugation (2000 g, 15 sec, 4°C) and washed twice in wash buffer (25 mM Tris, 50mM KCl, 4 mM MgCl2 and 1M NaCl). The pellet was resuspended in 3 ml elution buffer per liter of original culture (elution buffer: 20 mM Tris, 60 mM KCI, 5 mM MgCl2 and 80 mM glutathione added immediately prior to use as powder). The suspension was left rotating for 15 min at 4°C, the beads pelleted and eluted again with half the volume of elution buffer than the first time. The eluates were pooled and dialysed overnight in 20 mM Hepes buffer (pH 7.5) containing 60 mM KCI, 5 mM MgCl2 as well as 1 mM dithiothreitol and 10% (v/v) glycerol. The protein was analysed by SDS-Page.
The method measures the ability of putative ligands to modulate the interaction between the purified bacterial expressed FXR ligand binding domain (LBD) and a synthetic biotinylated peptide based on residues 676-700 of SRC-1 (LCD2, 676-700). The sequence of the peptide used was B-[…]-COOH where the N-terminus was biotinylated (B). The ligand binding domain (LBD) of FXR was expressed as fusion protein with GST in BL-21 cells using the vector pDEST15. Cells were lysed by sonication, and the fusion proteins purified over glutathione sepharose (Pharmacia) according to the manufacturers instructions. […] For ease of handling and reduction of background from compound fluorescence LANCE technology makes use of generic fluorophore labels and time resolved detection Assays were done in a final volume of 2 5µl in a 384 well plate, in a Tris-based buffer (20 mM Tris-HCl pH 7,5; 60 mM KCI, 5 mM MgCl2; 35 ng/µl BSA), containing 20-60 ng/well recombinantly expressed FXR-LBD fused to GST, 200-600 nM N-terminally biotinylated peptide, representing SRC1 aminoacids 676-700, 200 ng/well Streptavidin-xIAPC conjugate(Prozyme) and 6-10 ng/well Eu W1024 - antiGST (Perkin Elmer). […] The LANCE signal was detected by a Perkin Elmer VICTOR2VTM Multilabel Counter The results were visualized by plotting the ratio between the emitted light at 665 nm and 615 nm. […]
On the technique in general: Time-resolved FRET reads energy transfer from a long-lived donor to a nearby acceptor.

Setting [3] is: 16 hours incubation, firefly luciferase, read-out: DR assay EC50 (±sd).
[4] abbreviates: GST-tagged FXR-LBD, biotinylated SRC-1 peptide 676-700; read-out: FRET assay EC50 (±sd).

The pEC50 is −log10 of the EC50, conventionally taken in molar units.

Each structure is given as a SMILES string. pEC50: −log10 of the molar value. Read-outs that look alike come from different tables or passages of the source.

Consider `CN(Cc1ccc(C(=O)O)cc1)c1ccc(OCc2c(-c3c(Cl)cccc3Cl)noc2C2CC2)nc1C(F)(F)F` [Example 1, 4-{[(6-((5-Cyclopropyl-3-(2,6-dichlorophenyl)isoxazol-4-yl)methoxy)-2-(trifluoromethyl)pyridin-3-yl)(methyl)amino]methyl}benzoic acid], for which the pEC50 was 7.25 in experiment [1]; 8.19 on full length human FXR (read-out: DR assay EC50 (±sd), 16 hours incubation, firefly luciferase); 8.08 in experiment [2] (read-out: FRET assay EC50 (±sd); GST-tagged FXR-LBD, biotinylated SRC-1 peptide 676-700).

For `CC(C)c1onc(-c2c(Cl)cccc2Cl)c1COc1ccc(N(C)Cc2cccc(C(=O)O)c2)c(C(F)(F)F)n1` [Compound C, 3-(((6-((3-(2,6-Dichlorophenyl)-5-isopropylisoxazol-4-yl)methoxy)-2-(trifluoromethyl)pyridin-3-yl)(methyl)amino)methyl)benzoic acid, reference compound], the figures for the pEC50 (in experiment [1]; at full length human FXR (setting [3]); in experiment [2] (setting [4])) were 6.73, 8.24 and 7.96, respectively.

For the compound `Cc1cc(CN(C)c2ccc(OCc3c(-c4c(Cl)cccc4Cl)noc3C3CC3)nc2C(F)(F)F)ccc1C(=O)O` [Example 2, 4-{[(6-((5-Cyclopropyl-3-(2,6-dichlorophenyl)isoxazol-4-yl)methoxy)-2-(trifluoromethyl)pyridin-3-yl)(methyl)amino]methyl}-2-methylbenzoic acid], the pEC50 in experiment [1] was 7.40; at full length human FXR (setting [3]), 8.22; in experiment [2] (setting [4]), 8.11.

As to `Cc1cc(CN(C)c2ccc(OCc3c(-c4c(Cl)cccc4Cl)noc3C3CC3)nc2C(F)(F)F)cc(C)c1C(=O)O` [Example 3, 4-{[(6-((5-Cyclopropyl-3-(2,6-dichlorophenyl)isoxazol-4-yl)methoxy)-2-(trifluoromethyl)pyridin-3-yl)(methyl)amino]methyl}-2,6-dimethylbenzoic acid], the pEC50 in experiment [1] was 7.26; at full length human FXR (setting [3]), 8.22; in experiment [2] (setting [4]), 7.94.

With `CC(C)c1onc(-c2c(Cl)cccc2Cl)c1COc1ccc(N(C)Cc2ccc(C(=O)O)cc2)c(C(F)(F)F)n1` [Compound B, 4-(((6-((3-(2,6-Dichlorophenyl)-5-isopropylisoxazol-4-yl)methoxy)-2-(trifluoromethyl)pyridin-3-yl)(methyl)amino)methyl)benzoic acid, reference compound], the pEC50 is 7.02 in experiment [1], 7.89 on full length human FXR (setting [3]) and 7.77 in experiment [2] (setting [4]).
